# Measured values: ChEMBL document CHEMBL5308541, “MAIP: An Open-Source Tool to Enrich High-Throughput Screening Output and Identify Novel, Druglike Molecules with Antimalarial Activity” (ACS Med Chem Lett, 2023)
# Experiments:
# Plasmodium falciparum [1] = experiment: Hit confirmation in dose-response curve in NF54 pLDH assay, at 72h; type: functional, organism-based, Erythrocyte; set-up: timepoint 72 hour; details: Plasmodium falciparum, NF54, Erythrocyte, 72 h
# Plasmodium falciparum [2] = experiment: Hit confirmation in dose-response curve in NF54 nanoGlo assay, at 12h; type: functional, organism-based, Erythrocyte; set-up: timepoint 12 hour; details: Plasmodium falciparum, NF54, Erythrocyte, 12 h
# [3] = Hit confirmation in dose-response curve in HepG2 cytotoxicity assay, at 72h; type: toxicity, cell-based, Homo sapiens; set-up: timepoint 72 hour; details: human, HepG2 cells
# Plasmodium falciparum [4] = experiment: Hit confirmation in dose-response curve in NF54 nanoGlo assay, at 72h; type: functional, organism-based, Erythrocyte; set-up: timepoint 72 hour; details: Plasmodium falciparum, NF54, Erythrocyte, 72 h
# Plasmodium falciparum [5] = experiment: Hit confirmation in dose-response curve in Dd2 pLDH assay, at 72h; type: functional, organism-based, Erythrocyte; set-up: timepoint 72 hour; details: Plasmodium falciparum, Dd2, Erythrocyte, 72 h
Compound,IC50 (Plasmodium falciparum [1]) [µM],IC50 (Plasmodium falciparum [2]) [µM],IC50 at 72 h [3] [µM],IC50 (Plasmodium falciparum [4]) [µM],IC50 (Plasmodium falciparum [5]) [µM]
O[C@H](COc1ccccc1CNCc1cc(-c2ccccc2)[nH]n1)CN1CCCCC1,3.98,7.76,> 10,3.02,3.89
NCCCCc1c(-c2cccnc2)[nH]c2c(Cl)cc(Cl)cc12,4.47,6.92,9.55,4.47,4.07
C[C@H]1CCCN(CCNC(=O)c2ccc(-c3ccc4c(=O)[nH]ccc4c3)cc2)C1,0.398,> 10,> 10,1.48,0.575
CCNc1cc(C)nc(NCCNC(=O)Nc2cc(F)cc(F)c2)n1,3.47,> 10,> 10,2.4,3.47
CN1CCN(CCOc2ccccc2CN(C)Cc2cc3cc(F)ccc3[nH]2)CC1,6.17,6.92,10.2,4.07,5.62
Cc1nc2ccc(CNC3CCN(c4ccc(F)c(F)c4)CC3)cc2[nH]1,3.72,> 10,> 10,4.57,3.55
CN(Cc1cn(CC(N)=O)c2ccccc12)CC1CCN(CCc2ccc(F)cc2)CC1,4.17,7.41,> 10,4.07,4.37
FC(F)(F)c1ccc(N2CCC[C@H](NC3CCN(Cc4ccco4)CC3)C2)nc1,7.59,> 10,> 10,7.59,8.13
CN(C[C@H](O)COc1cccc(CNCCCOc2cccnc2)c1)C1CCCCC1,6.17,> 10,> 10,5.13,6.92
Cc1nc(-c2ccccn2)nc(NC2CCN(CC(F)F)CC2)c1C,9.12,> 10,> 10,2.51,6.46
O=C(CCc1nnc(-c2ccc(-c3ccccc3)cc2)o1)NC[C@@H]1CCCN2CCCC[C@H]12,5.13,8.51,> 10,4.07,6.46
COc1ccc2cc(NC(=O)c3cc(-c4c(C)nn(C)c4C)[nH]n3)cnc2c1,7.24,4.9,> 10,2.51,7.08
Cc1ccc(CNc2ncnc(N)c2Cl)c(N2CCCC2)n1,> 10,1.07,> 10,2.45,> 10
Cc1ccc2nc(-c3cccc(NC(=O)c4ccc(OC(F)(F)F)c(Cl)c4)c3)[nH]c2n1,6.46,> 10,> 10,3.31,4.37
Cc1cccc(Nc2ccnc(Nc3ccc(N4CCN(C)CC4)cc3)n2)c1,1.29,> 10,> 10,1.15,1.23
CN([C@@H](c1ccccc1)c1ccccc1Br)S(=O)(=O)c1c[nH]c2ncccc12,9.77,> 10,> 10,7.08,7.41
O=C(NCCNc1ccnc2ccncc12)c1ccc(C(F)(F)F)cc1,5.75,> 10,> 10,3.24,5.37
O[C@@H](CNCc1ccc2c(c1)CCO2)c1ccc(F)c(F)c1,8.32,5.62,> 10,2.29,3.72
CCN(Cc1[nH]c2ccc(Cl)cc2c1C)CC1CCN(C2CCN(C)CC2)CC1,1.74,3.09,> 10,1.51,1.62

Compound,IC50 (Plasmodium falciparum [1]) [µM],IC50 (Plasmodium falciparum [2]) [µM],IC50 at 72 h [3] [µM],IC50 (Plasmodium falciparum [4]) [µM],IC50 (Plasmodium falciparum [5]) [µM]
Cc1cc(C)c(CN2CCN(C)CC2)cc1CNCCCn1ccnc1C,3.89,7.41,> 10,3.89,3.39
CC(C)(C)c1ccc(CNC[C@H](O)c2ccc(F)cc2F)cc1,2.82,1.45,> 10,0.891,1.95
CCn1cc(-c2cccc(C(=O)N[C@@H](C)CN3CCc4ccccc4C3)c2)cn1,9.12,> 10,> 10,8.32,9.77
COCCN1CCC[C@@]2(CCN(c3ccnc4cc(Cl)ccc34)C2)C1,0.166,0.234,> 10,0.162,0.135
CN(c1ccccc1)c1ccc(CN2CCN([C@H]3CCNC3)CC2)cc1,9.33,> 10,> 10,4.17,6.46
CN1CCN(CC2CCN(c3ccnc4ccccc34)CC2)CC1,1.35,1.91,> 10,1.35,1.2
c1cncc(-c2ccc(CNC3CCN(Cc4cccs4)CC3)cc2)c1,3.72,7.94,> 10,2.88,2.69
CN(C)Cc1cccc(CCNCc2csc(-c3ccc(C(F)(F)F)cc3)n2)c1,3.47,4.79,7.76,2.63,2.69
CCN1CCN([C@H]2CCN(c3ccnc4ccncc34)C2)CC1,1.15,2,> 10,1.32,1.12
Oc1ccc(C2=CCN(Cc3cccc4[nH]ccc34)CC2)cc1,10,> 10,> 10,7.24,5.75
O=C(Nc1cnc2c(c1)COCC2)c1cc2c(OC(F)(F)F)cccc2[nH]1,1.55,0.955,> 10,0.676,2.19
COc1ccc(-c2cc(C(=O)Nc3ccc(N4CCN5CCCC5C4)cc3)c3c(C)noc3n2)cc1 (stereo not given),7.59,6.46,> 10,4.27,5.75
FC(F)(F)c1ccc(-c2c(-c3ccccc3)ncn2Cc2ncn[nH]2)cc1,> 10,2.75,> 10,6.92,> 10
CN(C)CC12CNCC1CN(c1ccnc3cc(Cl)ccc13)C2 (stereo not given),0.0309,0.0513,> 10,0.0417,0.043
COc1ccc(CCNCc2ccc3[nH]cnc3c2)c(Cl)c1,4.47,> 10,> 10,3.02,3.47
CNc1nc(C)cc(N[C@@H]2COc3ccccc3C2)n1,5.25,> 10,> 10,3.39,3.8
O=C(NCc1cccc(-c2cccnc2)c1)N[C@H]1CCN(C2CCCCC2)C1,1.29,> 10,> 10,3.98,4.47
CCc1cc(Nc2ccc(N3CCOCC3)nc2)nc(-c2ccncc2)n1,4.47,> 10,> 10,3.72,6.31
CC(C)c1ccc(-c2noc(CCN3CCN(CCCN(C)C)CC3)n2)cc1,> 10,> 10,> 10,7.94,8.51
